Laboratory results: the supplement of paper PMC13380429

Key:
Conditions in all cases: 72 h
HepG2 [1] = assay: cell viability relative to DMSO; higher = less toxic
Calu-3 [2] = assay: as above
HepG2 [3] = assay: drug sensitivity score (DSS) for viability; higher = more toxic; extreme values may be limits of the assay
Calu-3 [4] = assay: as above
HepG2 [5] = assay: relative viability EC50 (midpoint between 100% and the lowest measured viability); higher = less toxic
Calu-3 [6] = assay: as above
Vero E6 [7] = assay: cell viability relative to DMSO; higher = less toxic
Caco-2 [8] = assay: as above
U2OS [9] = assay: as above
Vero E6 [10] = assay: drug sensitivity score (DSS) for viability; higher = more toxic; extreme values may be limits of the assay
Caco-2 [11] = assay: as above
U2OS [12] = assay: as above
Vero E6 [13] = assay: relative viability EC50 (midpoint between 100% and the lowest measured viability); higher = less toxic
Caco-2 [14] = assay: as above
U2OS [15] = assay: as above

| SMILES | cell viability (HepG2 [1]; 1 nM) [%] | cell viability (HepG2 [1]; 10 nM) [%] | cell viability (HepG2 [1]; 100 nM) [%] | cell viability (HepG2 [1]; 1000 nM) [%] | cell viability (HepG2 [1]; 10000 nM) [%] | cell viability (Calu-3 [2]; 1 nM) [%] | cell viability (Calu-3 [2]; 10 nM) [%] | cell viability (Calu-3 [2]; 100 nM) [%] | cell viability (Calu-3 [2]; 1000 nM) [%] | cell viability (Calu-3 [2]; 10000 nM) [%] | drug sensitivity score (HepG2 [3]) | drug sensitivity score (Calu-3 [4]) | relative viability EC50 (HepG2 [5]) [µM] | relative viability EC50 (Calu-3 [6]) [µM] | cell viability (Vero E6 [7]; 1 nM) [%] | cell viability (Vero E6 [7]; 10 nM) [%] | cell viability (Vero E6 [7]; 100 nM) [%] | cell viability (Vero E6 [7]; 1000 nM) [%] | cell viability (Vero E6 [7]; 10000 nM) [%] | cell viability (Caco-2 [8]; 1 nM) [%] | cell viability (Caco-2 [8]; 10 nM) [%] | cell viability (Caco-2 [8]; 100 nM) [%] | cell viability (Caco-2 [8]; 1000 nM) [%] | cell viability (Caco-2 [8]; 10000 nM) [%] | cell viability (U2OS [9]; 1 nM) [%] | cell viability (U2OS [9]; 10 nM) [%] | cell viability (U2OS [9]; 100 nM) [%] | cell viability (U2OS [9]; 1000 nM) [%] | cell viability (U2OS [9]; 10000 nM) [%] | drug sensitivity score (Vero E6 [10]) | drug sensitivity score (Caco-2 [11]) | drug sensitivity score (U2OS [12]) | relative viability EC50 (Vero E6 [13]) [µM] | relative viability EC50 (Caco-2 [14]) [µM] | relative viability EC50 (U2OS [15]) [µM] |
| --- | --- | --- | --- | --- | --- | --- | --- | --- | --- | --- | --- | --- | --- | --- | --- | --- | --- | --- | --- | --- | --- | --- | --- | --- | --- | --- | --- | --- | --- | --- | --- | --- | --- | --- | --- |
| CC(C)(NS(=O)(=O)c1ccc(Oc2ccc(F)cc2)cc1)C(=O)NO | 110 | 111 | 98.3 | 110 | 80.7 | 106 | 96.3 | 98.9 | 97.9 | 94.3 | 0.3 | 0 | > 10 | > 10 |  |  |  |  |  |  |  |  |  |  |  |  |  |  |  |  |  |  |  |  |  |
| CCc1cc(-c2[nH]nc(C)c2-c2ccc3c(c2)OCCO3)c(O)cc1O | 94.7 | 91.1 | 104 | 81.1 | 11.1 | 93.2 | 94.6 | 101 | 89.7 | 58.8 | 8 | 3.7 | 1.68 |  | 99.4 | 104 | 101 | 95.9 | 67.9 | 103 | 92 | 98 | 89.7 | 53 | 99.2 | 94.9 | 98.3 | 99.7 | 65.6 | 2.1 | 4.1 | 1.6 |  |  |  |
| Cc1nc2sccn2c(=O)c1CCN1CCC(=C(c2ccccc2)c2ccc(F)cc2)CC1 | 104 | 96.3 | 100 | 96.9 | 95.8 |  |  |  |  |  | 0 |  | > 10 |  | 102 | 101 | 107 | 100 | 94.5 | 95.3 | 86.7 | 97 | 98.4 | 97.2 | 95.6 | 97.6 | 97.3 | 98.7 | 95 | 0 | 0 | 0 | > 10 | > 10 | > 10 |
| Cn1c(=O)cnn(CCCCN2CCN(c3ncccn3)CC2)c1=O | 111 | 114 | 95.2 | 116 | 106 | 111 | 91.3 | 102 | 120 | 103 | 0 | 0 | > 10 | > 10 |  |  |  |  |  |  |  |  |  |  | 103 | 97.1 | 103 | 97.8 | 103 |  |  | 0 |  |  | > 10 |
| O=C(NOCC1CC1)c1ccc(F)c(F)c1Nc1ccc(I)cc1Cl | 96.9 | 89.3 | 84.2 | 31.6 | 19.4 |  |  |  |  |  | 14.6 |  | 0.277 |  | 94.5 | 98.5 | 84.4 | 65.9 | 50.6 | 97.4 | 94.6 | 89.3 | 75.3 | 65.6 | 101 | 97.1 | 94.9 | 91.4 | 85.3 | 7.9 | 5.1 | 0.4 |  |  | > 10 |
| CC(C)[C@@H](C(=O)Nc1nccs1)c1ccc(Cl)cc1 [4-CMTB] | 95.7 | 95.4 | 94.1 | 99.7 | 63.3 | 111 | 107 | 102 | 97.8 | 68.1 | 1.8 | 1.8 |  |  | 107 | 107 | 98 | 96.4 | 92.9 |  |  |  |  |  | 104 | 108 | 106 | 102 | 85.5 | 0 |  | 0.1 | > 10 |  | > 10 |
| Cc1nc(NC(=O)N2CCC[C@H]2C(N)=O)sc1-c1csc(C(C)(C)C)n1 [A66] | 84.2 | 96 | 84 | 89.8 | 73.3 |  |  |  |  |  | 0 |  | > 10 |  | 98.5 | 96.5 | 95.3 | 101 | 87.9 | 98.5 | 87.5 | 95.8 | 92 | 78.9 | 103 | 97.4 | 98.6 | 93 | 88.7 | 0 | 1 | 0 | > 10 | > 10 | > 10 |
| CCCn1c(=O)c2[nH]c(C3CCCC3)nc2n(CCC)c1=O [DPCPX] | 102 | 105 | 99.8 | 101 | 91.5 |  |  |  |  |  | 0 |  | > 10 |  | 106 | 107 | 98.2 | 99.8 | 89.1 | 105 | 106 | 106 | 106 | 93.3 | 100 | 102 | 99.8 | 96.6 | 100 | 0 | 0 | 0 | > 10 | > 10 | > 10 |
